“And” between values parts separate entries of the source, which are not always exact repeats. Identical values can stand only once. Toxic doses and inconclusive results are not listed.

The subject of this assay is P335 leukemia ip, BDF1 mice, survival T/C %. As to the kind of experiment: NCI In Vivo Anticancer Drug Screen. Data for tumor model P335 Leukemia (intraperitoneal) in B6D2F1 (BDF1) mice. The following applies: endpoint: mean survival time, schedule: Q01DX Z (ip), higher = longer survival. On the procedure:
The antitumor activity of compounds was measured in mice bearing transplantable tumors. Survival or tumor size were measured and the results are expressed as the measurement made in the treated group (T) divided by the measurement made in the vehicle treated control group (C). The tumor model used in this assay is P335 Leukemia (intraperitoneal) in B6D2F1 (BDF1) mice

As to `NC(=O)N(CCCl)N=O`, the T/C runs as follows: (dose: 0.12 mg/kg/injection, vehicle: carboxymethylcellulose (CMC)) 94 % of control; (dose: 0.25 mg/kg/injection, vehicle: carboxymethylcellulose (CMC)) 114 % of control; (dose: 1.0 mg/kg/injection, vehicle: carboxymethylcellulose (CMC)) 110 % of control.
As for `C[C@H](N)C(=O)N[C@@H]1[C@H]2C(=C(O)C[C@@H](O)[C@@H]2O)C(=O)O[C@@H]1C`, the T/C was 114 % of control (dose: 23.43 mg/kg/injection, vehicle: saline); 168 % of control (dose: 187.5 mg/kg/injection, vehicle: saline); 151 % of control and 182 % of control (dose: 375.0 mg/kg/injection, vehicle: saline); 191 % of control (dose: 750.0 mg/kg/injection, vehicle: saline).
Take `CN(C)c1ccc(/C=C\c2ccnc3ccccc23)cc1`: the T/C runs as follows: (dose: 0.8 mg/kg/injection, vehicle: water) 100 % of control; (dose: 1.6 mg/kg/injection, vehicle: water) 98 % of control; (dose: 3.1 mg/kg/injection, vehicle: water) 102 % of control; (dose: 6.2 mg/kg/injection, vehicle: water) 109 % of control.
On to `S=P(N1CCOCC1)(N1CC1)N1CC1`, for which the T/C by setting is: (dose: 12.5 mg/kg/injection, vehicle: carboxymethylcellulose (CMC)) 101 % of control; (dose: 25.0 mg/kg/injection, vehicle: carboxymethylcellulose (CMC)) 93 % of control.

Values taken from PubChem BioAssay AID224 (DTP/NCI, 2004).
